Assay results from ChEMBL document CHEMBL5506018, “Discovery and Mechanistic Studies of Dual-Target Hits for Carbonic Anhydrase IX and VEGFR-2 as Potential Agents for Solid Tumors: X-ray, In Vitro, In Vivo, and In Silico Investigations of Coumarin-Based Thiazoles” (J Med Chem, 2024).

Columns and labels:
Carbonic anhydrase 1 [1] = target: T1, Carbonic anhydrase 1 (Homo sapiens, UniProt P00915); assay: Inhibition of human CA1 by stopped flow CO2 hydrase assay
Carbonic anhydrase 1 [2] = target: T1, Carbonic anhydrase 1
Description: Inhibition of human CA1 preincubated for 6 hrs by phenol red staining based stopped flow CO2 hydrase assay

[3] = target: T2, Vascular endothelial growth factor receptor 2 (Homo sapiens, UniProt P35968); assay: Inhibition of hypoxia induced VEGFR-2 (unknown origin)
T2 sequence (P35968 whole entry): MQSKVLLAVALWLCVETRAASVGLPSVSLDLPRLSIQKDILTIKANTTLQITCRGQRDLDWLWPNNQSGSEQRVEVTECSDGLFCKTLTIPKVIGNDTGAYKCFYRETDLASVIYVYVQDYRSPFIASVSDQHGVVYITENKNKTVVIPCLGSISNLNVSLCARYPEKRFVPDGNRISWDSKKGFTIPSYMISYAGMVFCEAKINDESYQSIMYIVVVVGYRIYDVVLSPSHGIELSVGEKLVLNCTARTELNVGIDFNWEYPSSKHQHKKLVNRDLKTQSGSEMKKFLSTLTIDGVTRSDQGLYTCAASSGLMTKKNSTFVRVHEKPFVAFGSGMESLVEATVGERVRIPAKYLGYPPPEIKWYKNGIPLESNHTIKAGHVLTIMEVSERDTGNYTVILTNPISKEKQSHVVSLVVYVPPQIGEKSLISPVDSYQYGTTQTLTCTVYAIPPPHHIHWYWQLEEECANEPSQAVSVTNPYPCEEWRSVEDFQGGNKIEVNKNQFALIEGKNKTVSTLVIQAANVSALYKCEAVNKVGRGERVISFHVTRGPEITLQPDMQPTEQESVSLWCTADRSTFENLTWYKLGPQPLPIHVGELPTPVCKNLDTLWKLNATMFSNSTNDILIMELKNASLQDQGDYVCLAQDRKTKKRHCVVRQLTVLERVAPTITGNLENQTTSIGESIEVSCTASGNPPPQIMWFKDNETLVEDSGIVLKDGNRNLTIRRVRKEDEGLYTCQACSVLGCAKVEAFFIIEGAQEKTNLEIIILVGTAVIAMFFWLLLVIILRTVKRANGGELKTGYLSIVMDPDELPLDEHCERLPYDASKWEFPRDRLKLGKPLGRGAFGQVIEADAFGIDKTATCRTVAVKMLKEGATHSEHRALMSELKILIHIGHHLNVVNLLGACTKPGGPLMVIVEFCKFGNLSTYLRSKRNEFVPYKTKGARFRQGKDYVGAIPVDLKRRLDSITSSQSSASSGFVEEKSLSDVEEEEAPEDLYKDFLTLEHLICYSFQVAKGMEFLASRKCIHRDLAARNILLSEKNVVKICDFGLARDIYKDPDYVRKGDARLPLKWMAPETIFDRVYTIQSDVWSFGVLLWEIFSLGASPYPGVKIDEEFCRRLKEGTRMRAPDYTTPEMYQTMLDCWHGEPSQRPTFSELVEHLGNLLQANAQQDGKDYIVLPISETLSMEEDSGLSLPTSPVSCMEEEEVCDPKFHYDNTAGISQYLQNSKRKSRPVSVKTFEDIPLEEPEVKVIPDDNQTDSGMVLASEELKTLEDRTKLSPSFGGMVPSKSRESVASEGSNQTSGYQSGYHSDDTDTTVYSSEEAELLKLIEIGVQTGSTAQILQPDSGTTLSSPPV

[4] = target: T2, Vascular endothelial growth factor receptor 2; assay: Inhibition of VEGFR-2 (unknown origin)
Ehrlich [5] = assay: animal or person; conditions: Mus musculus, 336 h, read-out: GI
PANC-1 = assay: Cytotoxicity against human PANC-1 cells under hypoxia condition by MTT assay; type: functional, cell-based
[6] = Cytotoxicity against African green monkey Vero cells under hypoxic condition by MTT assay; conditions: African green monkey (Chlorocebus sabaeus)
Ehrlich [7] = conditions: dose 5 mg/kg; route ip; time 14 day
Description: Antitumor activity against mouse EAC cells implanted in Swiss albino mouse assessed as T/C ratio at 5 mg/kg, ip measured on day 5, 10 and 14

T1 sequence (P00915 whole entry): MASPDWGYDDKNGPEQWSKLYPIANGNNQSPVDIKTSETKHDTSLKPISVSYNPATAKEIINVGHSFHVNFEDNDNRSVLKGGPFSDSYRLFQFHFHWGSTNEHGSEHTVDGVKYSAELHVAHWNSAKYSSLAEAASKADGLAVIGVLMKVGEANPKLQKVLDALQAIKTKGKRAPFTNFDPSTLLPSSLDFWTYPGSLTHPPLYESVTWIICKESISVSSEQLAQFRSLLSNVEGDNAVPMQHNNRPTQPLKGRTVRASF

| Compound | Ki (Carbonic anhydrase 1 [2]) | also measured |
| --- | --- | --- |
| Cc1nc(-c2cc3ccccc3oc2=O)ccc1C(=O)/C=C/c1cccs1 |  | Ki (Carbonic anhydrase 1 [1]): 1.1 µM |
| CCOc1cccc2cc(/C(C)=N/Nc3nc(-c4cc5cccc(OCC)c5oc4=O)cs3)c(=O)oc12 | > 100 µM |  |
| CCOc1cccc2cc(/C(C)=N/Nc3nc(-c4cc5cc(Br)ccc5oc4=O)cs3)c(=O)oc12 | > 100 µM |  |
| C/C(=N\NC(=S)Nc1ccc(Br)cc1)c1cc2ccccc2oc1=O |  | IC50 [4]: 0.082 µM |
| O=C(CN1C(=O)S/C(=C\c2cccs2)C1=O)c1cc2ccccc2oc1=O | > 100 µM |  |
| COc1cccc2c1C(=O)c1c(O)c3c(c(O)c1C2=O)C[C@@](O)(C(=O)CO)C[C@@H]3O[C@H]1C[C@H](N)[C@H](O)[C@H](C)O1 [DOXORUBICIN] |  | inhibition in vivo at 5 mg/kg (Ehrlich [5]): 67%; IC50 (PANC-1): 6.9 µM; IC50 [6]: 8.7 µM; T/C (Ehrlich [7]): 40.89 |

Second part, led by results:

| Ki (Carbonic anhydrase 1 [2]) | Compound | also measured |
| --- | --- | --- |
| > 100 µM | CCOc1cccc2cc(/C(C)=N/Nc3nc(-c4ccc(OC)cc4)cs3)c(=O)oc12 | IC50 [3]: 0.0348 µM |
| > 100 µM | CCOc1cccc2cc(/C(C)=N/Nc3nc(-c4ccccc4)cs3)c(=O)oc12 | IC50 [3]: 0.0686 µM |
| > 100 µM | CCOc1cccc2cc(/C(C)=N/Nc3nc(-c4ccc(Cl)cc4)cs3)c(=O)oc12 |  |
| > 100 µM | CCOc1cccc2cc(/C(C)=N/Nc3nc(-c4ccc(C)cc4)cs3)c(=O)oc12 |  |
| > 100 µM | CCOc1cccc2cc(/C(C)=N/Nc3nc(-c4cc5ccc(OC)cc5oc4=O)cs3)c(=O)oc12 |  |
| > 100 µM | CCOc1cccc2cc(/C(C)=N/Nc3nc(-c4ccc([N+](=O)[O-])cc4)cs3)c(=O)oc12 |  |
| > 100 µM | CCOc1cccc2cc(/C(C)=N/Nc3nc(-c4ccc(Br)cc4)cs3)c(=O)oc12 |  |
| > 100 µM | CCOc1cccc2cc(/C(C)=N/Nc3nc(-c4ccc(F)cc4)cs3)c(=O)oc12 | IC50 [3]: 0.0321 µM |
